Data set [1] concerns MDA-MB-231 cells. Nature of the data set: Multiplex Luminex supernatant cytokine analysis. The class given is cell-based, human. Particulars: 72 h, cell supernatants. On the procedure: Supernatants from the MDA-MB-231 (TNBC) cells in Fetal Bovine Serum (FBS) containing media were treated with various concentrations of VNLG-12R for 72 h, were collected, and various cytokines and growth factor concentrations (CLCX-1, IL-6, IL8 and TNF-α) were determined by Luminex multiplex assay kit (Millipore, Billerica, MA, USA) according to the manufacturer’s instructions. The expressions of secreted cytokines were read on Luminex 100 reader. The data was then analyzed using the BioPlex Software (BioRad, Hercules, CA, USA). The Luminex multiplex assays were conducted at the University of Maryland School of Medicine Cytokine Core Laboratory (Baltimore, MD, USA).

In another data set the test system is MDA-MB-468 cells. Nature of the data set: Head-to-head MTT antiproliferative assay, 6-day exposure. To be noted: Homo sapiens, MDA-MB-468, 144 h. Format: cell-based, human. On the procedure:
(§1) Figure 2 VNLG-152R inhibits mTORC1 signaling and the production of pro-inflammatory cytokines. (A) MDA-MB-231 and MDA-MB-468 cells were treated with the indicated concentrations of VNLG-152R for 72 h. Cell lysates were analyzed by immunoblotting with the indicated antibodies. (B) Head-to-head antiproliferative effects of VNLG-152R and eFT508 on MDA-MB-231 and MDA-MB-468 cells. The dose-response curves were generated from MTT assays after 6-day exposure to different concentrations of the compounds. Each point is a mean of replicates from three independent experiments. (C–E) MDA-MB-231 cell were treated with the indicated concentration of VNLG-152R or eFT508 for 72 h. Cell supernatants were collected, and the indicated cytokines were quantitated by Multiplex Luminex assay.
(§2) Cell growth inhibition assay was performed as described previously. For cell growth experiment, cells were treated with the VNLG-152R, VNLG-152E1 or VNLG-15E2 for 7 days. MTT assay was performed at the end of the experiment. Results represent the mean ± standard deviation of three independent experiments.
On the technique in general: Formazan colour is commonly taken as a measure of viable cells.

Data set [2] deals with MDA-MB-231 cells. The data set is described as above. To be noted: Homo sapiens, MDA-MB-231, 144 h. The class given is cell-based, human. On the procedure:
as §1, §2

The target of another data set is T1, Mnk1 (Homo sapiens, UniProt Q9BUB5).
T1 construct: incubated with recombinant full length Mnk1 proteins or cell lysates overnight at 4 °C; GST
Nature of the data set: Streptavidin-agarose pull-down with biotinylated VNLG-152R. Format: binding. To be noted: 50 µg. On the procedure: The streptavidin–agarose pull-down assay was performed as described previously. Biotin-VNLG-152R (50 µg) and biotin (50 µg; negative control) were preincubated with streptavidin agarose beads (Invitrogen, Waltham, MA, USA) overnight at 4 °C. The biotin-VNLG-152R-conjugated beads were washed three times with cold PBS and then incubated with recombinant full length Mnk1 proteins or cell lysates overnight at 4 °C. The bead-bound proteins were incubated and separated on a 10% SDS-PAGE and detected by western blot analysis for Mnk1.

The nature of data set [3]: Plasma pharmacokinetics after single IV and PO dosing. Particulars: mouse, in vivo. Format: in vivo, female CD1 mice. The method, then:
5. In vivo Pharmacokinetics (PK) Determination: These studies were Performed by Charles River Laboratories (CRL), Discovery Services, 251 Ballardvale Street, Wilmington, MA 01887, USA.
The PK studies were performed according to the guidelines and approval of CRL Institutional Animal Care and Use Committee (IACUC) under IACUC approval no: P04172013.
A total of sixty‐four naïve female CD‐1 mice (including 6 spare animals) were received from Charles River Laboratories, Kingston, NY. Following an acclimation period, the animals were assigned to the study based on acceptable health as determined by a staff veterinarian. For dosing, animals were placed into six groups as detailed in the study design table below. All animals were fasted overnight prior to dosing and food was returned after the 4‐h post‐dose blood collections.
Each animal in Groups 1, 3 and 5 received a single administration of prepared test article by intravenous tail administration at a target dose level of 2 mg/kg and dose volume of 10 mL/kg. Each animal in Groups 2, 4 and 6 received a single administration of prepared test article by oral gavage at a target dose level of 20 mg/kg and at a dose volume of 10 mL/kg. Dosing was performed on August 13, 2015 as detailed in the study protocol and was completed without incident. Dose administration […]
Following dosing and at each sample collection time
Group Mices Test Compound Level Conc. Volume Dose Vehicle Route […]
Interim blood samples were collected in a leapfrog design from each animal by puncture of a submandibular vein and a terminal blood sample was collected from each animal by intracardiac puncture following euthanasia with CO2 as outlined in the sample collection table below.
All blood samples were transferred into tubes containing K2EDTA anticoagulant and placed on wet ice immediately after collection until centrifuged at 2200 × g for 10 min at […] to isolate plasma.
The resulting plasma was transferred to individual polypropylene tubes in a 96‐well plate format and immediately placed on dry ice until storage at nominally […] before transfer to the Test Facility’s bioanalysis group for concentration and HPLC analysis. Individual blood collection times are […]
Table S4. Sample Collections.
Collection Information Whole Blood for Plasma Whole Blood for Plasma
Subgroup A (n = 3) 5 min & 1 h post‐dose 8 h post‐dose
Subgroup B (n = 3) 15 min & 4 h post‐dose 12 h post‐dose
Subgroup C (n = 3) 30 min & 6 h post‐dose 24 h post‐dose
Subgroup D (n = 2) Not applicable 2 h post‐dose
Subgroup A (n = 3) 15 min & 2 h post‐dose 8 h post‐dose
Subgroup B (n = 3) 30 min & 4 h post‐dose 12 h post‐dose
Subgroup C (n = 3) 1 hr & 6 h post‐dose 24 h post‐dose
Collection conditions K2EDTA K2EDTA
Collection route Submandibular Intracardiac puncture
Volume/Time point 100 μL Maximum volume
The plasma samples for Groups 1‐6, Subgroups A‐C were analyzed for test article concentration using a Research Grade LC MS/MS Assay (RGA‐Level 1). The bioanalytical report, including plasma […]
Pharmacokinetic parameters were estimated from the plasma concentration‐time data using standard non‐compartmental methods and utilizing suitable analysis software (Watson 7.2 Bioanalytical LIMS, Thermo Electron Corp). Parameters were estimated using nominal sampling times relative to the start of each dose administration (within an acceptable tolerance limit).
Concentrations below the limit of quantification were excluded from the pharmacokinetic analysis.
The area under the plasma test item concentration versus time curve (AUC) was calculated using the linear‐log‐linear trapezoidal method. When practical, the terminal elimination phase of each concentration versus time curve was identified using at least the final three observed concentration values. The slope of the terminal elimination phase was determined using log linear regression on the unweighted concentration data.
Parameter Description of Parameter […]

Data set [4] is described as follows: 14-day oral toxicity / MTD study. Details: species or system female athymic nude mice. Particulars: mouse, in vivo, po. The method, then:
Three different doses, i.e., 10, 25, and 50 mg/kg/day (formulated in 40% β-cyclodextrin in saline) of each compound were administered daily by oral gavage for 14 days. Each group consisted of 3 mice. Their body weight kinetics (loss in body weight, a clinical sign of toxicity) was observed during the 14 days of dosing following established procedures. Changes in body weight were scored on a scale of 0–4 as follows: (1) Weight loss: (10 g = 4, 7–9 g = 3, 4–6 g = 2, 1–3 g = 1; severe = 3, moderate = 2, slight = 1, none = 0).

In data set [5] the test system is panel of 6 human TNBC cell lines. Nature of the data set: MTT cell growth assay, summary over the panel. Format: cell-based. Particulars: 7 days. On the procedure:
Figure 3 In vitro characterization, pharmacokinetics and toxicity profile of VNLG-152R and its two enantiomers. (A) HPLC chromatograms racemic VNLG-152R (left panel) and the resolved enantiomers VNLG-152E1 and VNLG-152E2 (right panel). The conditions of HPLC procedure are presented in Supplementary Materials. (B) Table summarizing GI50 values (µM) each cell line treated with VNLG-152R and its enantiomers. TNBC cell subtypes were treated with listed compound (0.1 nmol/L–100 µmol/L) for 7 days and the GI50 values for the anti-proliferative effects of the compounds were determined from dose response curves (by a nonlinear regression analysis using Graph Pad Prism). Data represents the results from six independent experiments for each cell line. (C) Plasma concentration versus time profile after intravenous (IV, 2 mg/kg each, top panel) or oral (PO, 20 mg/kg each, bottom panel) of VNLG-152R (red), VNLG-152E1 (purple) and VNLG-152E2 (blue) to female CD1 mice. Values represent the mean plasma concentrations from three mice per time point. (D) Table of the pharmacokinetic parameters of various compounds after IV and PO dosing. AUC = area under the curve, T1/2 = elimination half-life, Cmax = maximum plasma concentration, F (%) = oral bioavailability. (E) Effects of VNLG-152R, VNLG-152E1 and VNLG-152E2 on body weight and clinical observations at chronic dose termination of study. Three different doses, i.e., 10, 25, and 50 mg/kg/day (formulated in 40% β-cyclodextrin in saline) of each compound were administered daily by oral gavage for 14 days. Each group consisted of three mice. Loss in body weight, a clinical sign of toxicity was observed during the 14 days of dosing and the maximum tolerated dose (MTD) was estimated following established procedures. Changes in body weight were scored on a scale of 0–4 as follows as described under methods. […]

The test system of a further data set is MDA-MB-231 xenografts. Nature of the data set: MDA-MB-231 xenograft, racemate vs enantiomers, IP vs PO. Format: in vivo, nude mice. To be noted: 20 mg/kg per day PO, 36 days. On the procedure: The second experiment designed to compare heal-to-head IP versus oral dosing (PO) and the efficacy of racemic VNLG-152 versus its two enantiomers was like that described above but consisted of eight groups. When the tumor volumes had reached about 100 mm^3, the mice were randomly divided into 8 groups of 5 mice each. The two control groups received vehicle (IP or OP) and the other six groups received VNLG-152R (20 mg/kg, IP or PO, once daily), VNLG-152E1 (20 mg/kg, IP or PO, once daily), and VNLG-152E2 (20 mg/kg, IP or PO, once daily) five days/week. These treatments continued for 36 days and the tumors were measured and processed as described above.

In a further data set the test system is Br-001 xenograft tumors. Description: Patient-derived TNBC xenograft (PDX), PO, racemate vs E1. Format: in vivo, NSG mice. Particulars: 20 mg/kg PO. On the procedure:
The second PDX tumor model experiment was conducted to assess the efficacy of VNLG-152R versus VNLG-152E1 following PO administration. When the tumor volumes had reached about 100 mm^3, the mice were randomly divided into three groups of five mice each. The control group received vehicle (PO) and the other two groups received VNLG-152R (20 mg/kg, PO, once daily), and VNLG-152E1 (20 mg/kg, PO, once daily) five days/week. These treatments continued for 15 days and the tumors were measured and processed as described above.
In general terms: In xenograft studies the graft and the host belong to different species.

[6] abbreviates: mean over 6 TNBC cell lines, read-out: average GI50.
The mark [7] stands for this setting: range over 6 TNBC cell lines, read-out: range of GI50.

Each structure is given as a SMILES string. Where two headings read alike, the source gives them in different places. Some results are limits rather than exact numbers.

The results in this text go back to article PMC6468747 (Cancers, 2019).

The term GI50 denotes the concentration giving 50% growth inhibition. The term AUC(0-inf) denotes the area under the concentration-time curve extrapolated to infinity. A low value points to low exposure. In general, Cmax refers to the peak of the concentration-time curve. For orientation: TGI means how far tumour growth fell short of that in controls. A higher TGI goes with much slowing of growth.

T1 sequence (Q9BUB5 whole entry): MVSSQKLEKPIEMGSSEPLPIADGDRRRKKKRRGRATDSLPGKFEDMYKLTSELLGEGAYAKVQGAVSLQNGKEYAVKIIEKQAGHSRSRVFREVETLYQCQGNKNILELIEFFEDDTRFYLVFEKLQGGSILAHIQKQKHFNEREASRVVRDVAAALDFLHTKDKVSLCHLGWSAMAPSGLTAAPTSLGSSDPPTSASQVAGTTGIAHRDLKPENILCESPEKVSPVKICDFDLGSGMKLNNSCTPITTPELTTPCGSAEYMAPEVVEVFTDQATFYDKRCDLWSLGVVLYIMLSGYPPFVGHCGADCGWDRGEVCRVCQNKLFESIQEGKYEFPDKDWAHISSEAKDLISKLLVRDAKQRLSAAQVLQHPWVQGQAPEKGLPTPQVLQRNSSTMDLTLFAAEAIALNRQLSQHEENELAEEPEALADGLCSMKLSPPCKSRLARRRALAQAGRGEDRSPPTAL

Consider `Cc1cc(Nc2cc(N)ncn2)c(=O)n2c1C(=O)NC21CCCCC1.Cl` [eFT508, 6′-[(6-aminopyrimidin-4-yl)amino]-8′-methyl-2′Hspiro[cyclohexane-1,3′-imidazo-[1,5-a]pyridine]-1′,5′-dione hydrochloride (1:1), reference compound], for which the “secreted IL-6 and IL-8, TNFα and chemokine CXCL1” value in the data set with MDA-MB-231 cells [1] is “dose-dependent reduction”. For the same compound, the “secretion of CXCL1” value with MDA-MB-231 cells [1] was “seem to stimulate secretion of CXCL1”. The GI50 was determined as 52500 nM with MDA-MB-468 cells and 7070 nM in the data set on MDA-MB-231 cells [2].

Consider `CC1=C(/C=C/C(C)=C/C=C/C(C)=C/C(=O)N(CCOC(=O)CCCC[C@@H]2SC[C@@H]3NC(=O)N[C@@H]32)c2ccc(F)cc2)C(C)(C)CCC1n1ccnc1` (stereo partly drawn) [VNLG-152R-biotin], for which the “Mnk1 captured in streptavidin pull-down” value at Mnk1 (MDA-MB-231 cells) is “direct binding of Mnk1 to VNLG-152R-biotin in MDA-MB-231 cells”; on Mnk1 (recombinant Mnk1 protein) it was “substantial amounts of Mnk1 was found only in the VNLG-152R-biotin-treated sample”.

Turning to `CC1=C(/C=C/C(C)=C/C=C/C(C)=C/C(=O)Nc2ccc(F)cc2)C(C)(C)CCC1n1ccnc1` (single isomer, unassigned) [VNLG-152E2], the “F (%) oral bioavailability” value in data set [3] is on record as 72.8%. In [3] (iv, 2 mg/kg), the “AUC(0-inf)” value was 1840 ng·h/mL and the T1/2 came out at 1.10 h. Further, in [3] (po, 20 mg/kg), the “AUC(0-inf)” value worked out at 13400 ng·h/mL, the highest concentration (Cmax) is on record as 3590 ng/mL and the T1/2 stood at 4.02 h. Also, the “maximum tolerated dose (MTD)” value in data set [4] is over 50 mg/kg. In data set [5] (setting [6]), the GI50 is 390 nM. The GI50 in data set [5] (setting [7]) fell in the range of 100 to 1170 nM.

`CC1=C(/C=C/C(C)=C/C=C/C(C)=C/C(=O)Nc2ccc(F)cc2)C(C)(C)CCC1n1ccnc1` (single isomer, unassigned) [VNLG-152E1]: the “F (%) oral bioavailability” value in data set [3] is recorded as 161.9%. Moreover, the “AUC(0-inf)” value in data set [3] (iv, 2 mg/kg) was 2100 ng·h/mL; in data set [3] (po, 20 mg/kg), 34000 ng·h/mL. For the same compound, the T1/2 came to 1.78 h in [3] (iv, 2 mg/kg) and 4.49 h in [3] (po, 20 mg/kg). This compound came in with a Cmax in [3] (po, 20 mg/kg) of 4880 ng/mL. Besides, the TGI was found to be 78% in the data set on MDA-MB-231 xenografts and 79% with Br-001 xenograft tumors (5 days per week, 15 days). Further, the “maximum tolerated dose (MTD)” value in data set [4] is given as over 50 mg/kg. In addition, the GI50 in [5] (setting [6]) is 2300 nM; in [5] (setting [7]), 980 to 4790 nM. For the same compound, the “changes in body weights” value in the data set with Br-001 xenograft tumors was “No changes in body weights were observed”.
